Here are results for one compound from US20140142155A1, “METHOD OF TREATING THROMBOCYTOPENIA” (GlaxoSmithKline LLC, priority 2008, published 2014).

Like-named read-outs stand apart in the source and are kept apart here.

One series concerns the target OATP1B1 (Homo sapiens, UniProt Q9Y6L6). The series can be described thus: Transporter substrate assessment. It is filed as in vitro ADME.
The subject of the next series is dogs. Put plainly: Platelet production in animals. It is filed as in vivo, dog.
The nature of series [1]: In vitro phototoxicity and photoclastogenicity. It is filed as cell-based.
For the next series, the system named is rabbits. Put plainly: Toxicology in rabbits. It is filed as in vivo, rabbit. As to conditions: 1.4 times human clinical exposure (AUC).
The next series has as its system mice. To be noted: mouse, in vivo.
The next series relates to rats. As to conditions: rat, in vivo.
Another series has as its system bacterial. The series can be described thus: Bacterial mutation assay.

OATP1B1, sequence (Q9Y6L6 whole entry): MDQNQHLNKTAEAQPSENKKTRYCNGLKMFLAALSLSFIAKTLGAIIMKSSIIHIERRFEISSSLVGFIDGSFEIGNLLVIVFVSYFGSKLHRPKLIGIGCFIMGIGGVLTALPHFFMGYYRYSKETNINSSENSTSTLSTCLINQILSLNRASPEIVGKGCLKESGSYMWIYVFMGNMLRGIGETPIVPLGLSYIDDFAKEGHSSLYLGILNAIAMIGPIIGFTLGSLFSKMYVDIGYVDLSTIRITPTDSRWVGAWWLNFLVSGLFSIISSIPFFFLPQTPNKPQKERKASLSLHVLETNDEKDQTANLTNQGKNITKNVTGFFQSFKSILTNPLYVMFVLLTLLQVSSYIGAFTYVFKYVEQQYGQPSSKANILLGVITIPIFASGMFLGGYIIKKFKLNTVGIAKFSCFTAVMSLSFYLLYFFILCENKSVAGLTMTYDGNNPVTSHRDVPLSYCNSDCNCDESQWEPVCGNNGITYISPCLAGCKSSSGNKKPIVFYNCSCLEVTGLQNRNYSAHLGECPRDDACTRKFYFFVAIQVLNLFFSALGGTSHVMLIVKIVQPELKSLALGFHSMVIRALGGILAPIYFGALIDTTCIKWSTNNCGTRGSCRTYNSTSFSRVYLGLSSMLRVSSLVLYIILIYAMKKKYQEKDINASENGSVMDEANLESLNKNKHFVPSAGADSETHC

As to `CC1=NN(c2ccc(C)c(C)c2)C(=O)/C1=N\Nc1cccc(-c2cccc(C(=O)O)c2)c1O` [eltrombopag, 3′-[(2Z)-[1-(3,4-dimethylphenyl)-1,5-dihydro-3-methyl-5-oxo-4H-pyrazol-4-ylidene]hydrazino]-2′-hydroxy-[1,1′-biphenyl]-3-carboxylic acid], at OATP1B1, the “substrate for OATP1B1” value is on record as “not a substrate”. The platelet production entry in the series on dogs is “does not stimulate platelet production”. Further, the photoclastogenicity in vitro entry in series [1] is “photoclastogenic”. Moreover, the phototoxicity in vitro result in series [1] is recorded as “phototoxic”. For the same compound, in series [1] (cytotoxic concentrations, UV 30 MED), the “drug concentrations at which photoclastogenic effects were observed” value is no less than 15000 ng/mL. The “photoclastogenicity in vitro at lower UV exposure” value in series [1] (up to 58.4 mcg/mL, UV 15 MED) is reported as “No evidence of in vitro photoclastogenicity”. The liver finding entry in the series with rabbits, with mice and in the series on rats was “hepatocellular hypertrophy” throughout. Moreover, the “renal tubular effects after 13 weeks” value in the series on mice is reported as “No similar effects were observed”. The renal tubular toxicity result with mice was “Renal tubular toxicity was observed”. For the same compound, the “duration of dosing after which cataracts were observed” value with mice (6 weeks) came to 6 weeks; in the series with mice (13 weeks), 13 weeks; in the series with rats (28 weeks), 28 weeks; in the series on rats (39 weeks) it was 39 weeks. For the same compound, the “liver finding (vacuolation)” value in the series on rats is “hepatocellular vacuolation”. Also, the mutagenicity/clastogenicity result in the series with bacterial was “not mutagenic or clastogenic”.
